Assay results reported in US8975415B2, “Chromane compounds” (CoMentis, Inc., priority 2012, dated 2015).

How the values were obtained:
[1] = molecular target: T1, BACE1 (Homo sapiens (Human), UniProt P56817); assay: Measurement of Aβ production inhibition in cell (SK-N-BE(2) neuroblastoma cells, Aβ40 ELISA); settings: Test Example 3 IC50, Aβ40 production, SK-N-BE(2) cells, 6 hours
Target sequence in this assay (P56817 46-501): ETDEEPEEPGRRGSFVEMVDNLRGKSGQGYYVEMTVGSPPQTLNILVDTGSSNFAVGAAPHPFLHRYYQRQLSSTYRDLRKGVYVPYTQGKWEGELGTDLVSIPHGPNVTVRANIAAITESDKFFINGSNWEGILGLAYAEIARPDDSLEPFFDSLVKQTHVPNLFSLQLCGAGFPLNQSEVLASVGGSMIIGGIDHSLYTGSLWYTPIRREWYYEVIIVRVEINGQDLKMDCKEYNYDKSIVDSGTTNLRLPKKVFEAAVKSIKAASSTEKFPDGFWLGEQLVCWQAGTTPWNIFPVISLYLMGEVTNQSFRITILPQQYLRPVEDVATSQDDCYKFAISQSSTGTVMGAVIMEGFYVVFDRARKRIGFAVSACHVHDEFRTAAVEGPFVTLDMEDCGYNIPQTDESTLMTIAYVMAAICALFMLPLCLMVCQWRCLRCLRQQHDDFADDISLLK
Protocol: The potency of compounds against BACE1 activity was determined in a cellular assay of Aβ production. […] Test compounds were dissolved in dimethyl sulfoxide and diluted with dimethyl sulfoxide and put into RPMI1640/5% FBS/penicillin-streptomycin media (final dimethyl sulfoxide concentration is 0.5%). […] CellTiter-Glo Substrate was dissolved into CellTiter-Glo Buffer and added to the plates in 95 μL/well. After shaking the plates for 2 minutes, the whole sample was transferred into a white 96-well plate and luminescence was measured for ATP quantification as the cell viability. Aβ concentration measured by ELISA was normalized by the viability of the corresponding cells.

[2] = molecular target: T1, BACE1; assay: Measurement of BACE1 inhibition by fluorescence resonance energy transfer (FRET), MCA substrate; settings: FRET; for IC50: read-out: Test Example 1 IC50, MCA-SEVNLDAEFK(DNP)-NH2 substrate, pH 4.4; for Ki: read-out: Test Example 1 BACE1 MCA Ki, MCA substrate
Target sequence in this assay (P56817 75-416): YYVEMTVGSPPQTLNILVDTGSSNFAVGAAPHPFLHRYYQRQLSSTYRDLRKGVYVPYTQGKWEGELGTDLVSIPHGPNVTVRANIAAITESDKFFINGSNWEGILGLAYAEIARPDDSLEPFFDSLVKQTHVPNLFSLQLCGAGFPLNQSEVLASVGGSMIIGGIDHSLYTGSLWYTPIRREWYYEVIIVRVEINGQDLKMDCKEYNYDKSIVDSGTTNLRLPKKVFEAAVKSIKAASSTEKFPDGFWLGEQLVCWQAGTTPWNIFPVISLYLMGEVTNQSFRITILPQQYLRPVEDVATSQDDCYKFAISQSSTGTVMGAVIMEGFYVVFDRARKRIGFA

SMILES | IC50 [1] [µM] | IC50 [2] [µM] | Ki [2] [µM]
COCC#Cc1cncc(-c2ccc3c(c2)C2(COC(N)=N2)C2(COC2)CO3)c1 (stereo not drawn) [RP 19, 6′-[5-(3-methoxyprop-1-yn-1-yl)pyridin-3-yl]dispiro[1,3-oxazole-4,4′-chromene-3′,3″-oxetan]-2-amine] | 0.43 | 2.31 | –
C#Cc1cncc(-c2ccc3c(c2)C2(COC(N)=N2)C2(COC2)CO3)c1 (stereo not drawn) [RP 23] | 0.9 | 0.519 | –
COc1cccnc1Nc1ccc2c(c1)C1(COC(N)=N1)C1(COC1)CO2 (stereo not drawn) [RP 26] | 0.069 | 3.75 | –
NC1=NC2(CO1)c1cc(NC(=O)c3ccc(F)cn3)ccc1OCC21CC1 (stereo not drawn) [RP 31, N-(2″-aminodispiro[cyclopropane-1,3′-chromene-4′,4″-[1,3]oxazol]-6′-yl)-5-fluoropyridine-2-carboxamide] | 0.061 | 1.06 | 1.03
COc1ccc(F)c(-c2ccc3c(c2)C2(COC(N)=N2)C2(COC2)CO3)c1 (stereo not drawn) [RP 33] | 0.95 | 1.52 | –
NC1=NC2(CO1)c1cc(-c3cncnc3)ccc1OCC21COC1 (stereo not drawn) [RP 36] | 0.81 | 2.9 | –
NC1=NC2(CS1)c1cc(Br)ccc1OCC21COC1 (stereo not drawn) [RP 41, 6′-bromodispiro[oxetane-3,3′-chromene-4′,4″-[1,3]thiazol]-2″-amine] | > 30 | 24.8 | –
NC1=NC2(CO1)c1cc(Nc3ncccc3Cl)ccc1OC1(CCC1)C21COC1 (stereo not drawn) [RP 44] | 0.098 | 0.602 | –
CCC(CC)Cc1ccc2c(c1)C1(COC(N)=N1)C1(COC1)C1(CCC1)O2 (stereo not drawn) [RP 47] | 1.4 | 2.33 | –
NC1=NC2(CO1)c1cc(-c3cncc(C#CC4CC4)c3)ccc1OC1(CCC1)C21COC1 (stereo not drawn) [RP 48, 6′-[5-(cyclopropylethynyl)pyridin-3-yl]trispiro[cyclobutane-1,2′ chromene-4′,4″-[1,3]oxazole-3′,3′″-oxetan]-2″-amine] | 0.69 | 1.13 | –
NC1=NC2(CO1)c1cc(-c3cncc(OCC(F)(F)F)c3)ccc1OCC21CC1 (stereo not drawn) [RP 58] | 0.18 | 1.48 | –
NC1=NC2(CO1)c1cc(-c3cncc(OC(F)F)c3)ccc1OCC21CC1 (stereo not drawn) [RP 60] | 0.16 | 1.48 | –
NC1=NC2(CO1)c1cc(-c3cncc(OCC(F)(F)C(F)F)c3)ccc1OCC21CC1 (stereo not drawn) [RP 64] | 2.3 | 6.12 | –
CC1(C)Oc2ccc(-c3cncnc3)cc2C2(COC(N)=N2)C12COC2 (stereo not drawn) [RP 69] | 0.04 | 0.397 | –
NC1=NC2(CO1)c1cc(-c3cncc(F)c3)ccc1OC1(CCC1)C21COC1 (stereo not drawn) [RP 70] | 0.96 | 1.75 | –
COc1cncc(-c2ccc3c(c2)C2(COC(N)=N2)C2(COC2)C2(CCC2)O3)c1 (stereo not drawn) [RP 72] | 0.068 | 0.817 | –
NC1=NC2(CO1)c1cc(-c3cc(Cl)cnc3F)ccc1OC1(CCC1)C21COC1 (stereo not drawn) [RP 73] | 0.07 | 0.827 | –
CC1(C)Oc2ccc(-c3cccnc3F)cc2C2(COC(N)=N2)C12COC2 (stereo not drawn) [RP 82] | 0.036 | 0.348 | –
CCC1Oc2ccc(-c3cncnc3)cc2C2(COC(N)=N2)C12COC2 (stereo not drawn) [RP 87] | 0.43 | 1.55 | –
CC(C)CC1Oc2ccc(-c3cncnc3)cc2C2(COC(N)=N2)C12COC2 (stereo not drawn) [RP 93] | 0.37 | 0.629 | –
CCCC1Oc2ccc(-c3cncnc3)cc2C2(COC(N)=N2)C12COC2 (stereo not drawn) [RP 94] | 0.38 | 0.862 | –

SMILES | IC50 [1] [µM] | IC50 [2] [µM] | Ki [2] [µM]
CC#Cc1cncc(-c2ccc3c(c2)C2(COC(N)=N2)C2(COC2)C(CCC(F)(F)F)O3)c1 (stereo not drawn) [RP 96] | 0.022 | 0.126 | 0.868
NC1=NC2(CO1)c1cc(-c3cncnc3)ccc1OCC21CCCO1 (stereo not drawn) [RP 97] | 2.6 | 20.2 | –
NC1=NC2(CO1)c1cc(-c3cccnc3F)ccc1OCC21CC1 (stereo not drawn) [RP 103] | 0.45 | 2.19 | –
NC1=NC2(CO1)c1cc(-c3cncc(Cl)c3)ccc1OCC21CC1 (stereo not drawn) [RP 107] | 0.46 | 1.06 | –
CC#Cc1cncc(-c2ccc3c(c2)C2(COC(N)=N2)C2(COC2)C2(CCC2)O3)c1 (stereo not drawn) [RP 109] | 0.048 | 0.152 | 0.12
CC#Cc1cncc(-c2cc3c(cc2F)OCC2(CC2)C32COC(N)=N2)c1 (stereo not drawn) [RP 112] | 0.66 | 0.4 | –
CC#Cc1cncc(-c2ccc3c(c2)C2(COC(N)=N2)C2(CCC2)CO3)c1 (stereo not drawn) [RP 113] | 0.47 | 1.11 | –
N#Cc1ncccc1-c1ccc2c(c1)C1(COC(N)=N1)C1(COC1)C1(CCC1)O2 (stereo not drawn) [RP 115, 3-(2″-aminotrispiro[cyclobutane-1,2′-chromene-4′,4″-[1,3]oxazole-3′,3′″-oxetan]-6′-yl)pyridine-2-carbonitrile] | 1.1 | 3.31 | –
N#Cc1cncc(-c2ccc3c(c2)C2(COC(N)=N2)C2(COC2)C2(CCC2)O3)c1 (stereo not drawn) [RP 120] | 2.3 | 1.89 | –
COc1cc(-c2ccc3c(c2)C2(COC(N)=N2)C2(COC2)C2(CCC2)O3)c(F)cn1 (stereo not drawn) [RP 122] | 1.1 | 2.74 | –
NC1=NC2(CO1)c1cc(-c3cccc(F)c3)ccc1OC1(CCC1)C21COC1 (stereo not drawn) [RP 125] | 0.58 | 2.31 | –
COc1cccc(-c2ccc3c(c2)C2(COC(N)=N2)C2(COC2)C2(CCC2)O3)c1 (stereo not drawn) [RP 126] | 1.2 | 0.696 | –
Cc1cccc(-c2ccc3c(c2)C2(COC(N)=N2)C2(COC2)C2(CCC2)O3)c1 (stereo not drawn) [RP 127] | 1.8 | 2.27 | –
N#Cc1cccc(-c2ccc3c(c2)C2(COC(N)=N2)C2(COC2)C2(CCC2)O3)c1 (stereo not drawn) [RP 128] | 1.5 | 1.68 | –
CCOc1cc(-c2ccc3c(c2)C2(COC(N)=N2)C2(COC2)C2(CCC2)O3)cc(C(F)(F)F)c1 (stereo not drawn) [RP 129] | 7.3 | 2.21 | –
NC1=NC2(CO1)c1cc(-c3cc(F)ccc3F)ccc1OC1(CCC1)C21COC1 (stereo not drawn) [RP 130] | 1.7 | 1.87 | –
CCOc1cccc(-c2ccc3c(c2)C2(COC(N)=N2)C2(COC2)C2(CCC2)O3)c1 (stereo not drawn) [RP 131] | 3.2 | 2.02 | –
N#C/C=C/c1cccc(-c2ccc3c(c2)C2(COC(N)=N2)C2(COC2)C2(CCC2)O3)c1 (stereo not drawn) [RP 132] | 1.2 | 2.45 | –
CCOc1cc(F)cc(-c2ccc3c(c2)C2(COC(N)=N2)C2(COC2)C2(CCC2)O3)c1 (stereo not drawn) [RP 133] | 2.8 | 1.67 | –
NC1=NC2(CO1)c1cc(C3=CCCCC3)ccc1OC1(CCC1)C21COC1 (stereo not drawn) [RP 135] | 1.8 | 3.27 | –
COc1ccc(F)c(-c2ccc3c(c2)C2(COC(N)=N2)C2(COC2)C2(CCC2)O3)c1 (stereo not drawn) [RP 136, 6′-(2-fluoro-5-methoxyphenyl)trispiro[cyclobutane-1,2′-chromene-4′,4″-[1,3]oxazole-3′,3′″-oxetan]-2″-amine] | 0.66 | 0.635 | –

SMILES | IC50 [1] [µM] | IC50 [2] [µM] | Ki [2] [µM]
COc1cccc(-c2ccc3c(c2)C2(COC(N)=N2)C2(COC2)C2(CCC2)O3)c1F (stereo not drawn) [RP 137] | 0.83 | 0.773 | –
NC1=NC2(CO1)c1cc(-c3cccc(F)c3F)ccc1OC1(CCC1)C21COC1 (stereo not drawn) [RP 138] | 1.5 | 1.67 | –
CC1(C)Oc2ccc(-c3cccc(Cl)c3)cc2C2(COC(N)=N2)C12COC2 (stereo not drawn) [RP 139] | 0.14 | 0.252 | 0.215
CC1(C)Oc2ccc(-c3cccc(C4CC4)c3)cc2C2(COC(N)=N2)C12COC2 (stereo not drawn) [RP 140] | 0.41 | 0.389 | –
CC1(C)Oc2ccc(-c3cccc(C(F)(F)F)c3)cc2C2(COC(N)=N2)C12COC2 (stereo not drawn) [RP 141] | 1.3 | 0.903 | –
COc1cccc(-c2ccc3c(c2)C2(COC(N)=N2)C2(COC2)C(C)(C)O3)c1 (stereo not drawn) [RP 142] | 0.15 | 0.401 | –
CCOc1cccc(-c2ccc3c(c2)C2(COC(N)=N2)C2(COC2)C(C)(C)O3)c1 (stereo not drawn) [RP 144] | 0.46 | 0.879 | –
CC1(C)Oc2ccc(-c3cc(F)cc(Cl)c3)cc2C2(COC(N)=N2)C12COC2 (stereo not drawn) [RP 146, 6′-(3-chloro-5-fluorophenyl)-2′,2′-dimethyldispiro[1,3-oxazole-4,4′-chromene-3′,3″-oxetan]-2-amine] | 0.21 | 0.226 | 0.188
CC1(C)Oc2ccc(-c3cc(F)cc(F)c3)cc2C2(COC(N)=N2)C12COC2 (stereo not drawn) [RP 147] | 0.17 | 0.621 | –
Cc1cc(F)cc(-c2ccc3c(c2)C2(COC(N)=N2)C2(COC2)C(C)(C)O3)c1 (stereo not drawn) [RP 148] | 0.48 | 0.614 | –
Cc1cnc(Cl)c(-c2ccc3c(c2)C2(COC(N)=N2)C2(COC2)C(C)(C)O3)c1 (stereo not drawn) [RP 151] | 0.28 | 1.36 | –
CC1(C)Oc2ccc(-c3cc(Cl)cnc3Cl)cc2C2(COC(N)=N2)C12COC2 (stereo not drawn) [RP 152] | 0.11 | 0.688 | –
CC1(C)Oc2ccc(-c3cc(F)cnc3Cl)cc2C2(COC(N)=N2)C12COC2 (stereo not drawn) [RP 153] | 0.13 | 1.13 | –
CC1(C)Oc2ccc(-c3cccnc3Cl)cc2C2(COC(N)=N2)C12COC2 (stereo not drawn) [RP 156] | 0.18 | 2.61 | –
Cc1cc(-c2ccc3c(c2)C2(COC(N)=N2)C2(COC2)C(C)(C)O3)cnc1F (stereo not drawn) [RP 157] | 0.66 | 2.8 | –
CC1(C)Oc2ccc(-c3cc(F)ncc3Cl)cc2C2(COC(N)=N2)C12COC2 (stereo not drawn) [RP 158] | 0.37 | 0.93 | –
NC1=NC2(CO1)c1cc(NC(=O)c3ncc(Br)cn3)ccc1OCC21CC1 (stereo not drawn) [RP 189] | 0.043 | 0.661 | 0.623
COc1cnc(C(=O)Nc2ccc3c(c2)C2(COC(N)=N2)C2(CC2)CO3)cn1 (stereo not drawn) [RP 193] | 0.081 | 1.04 | –
N#Cc1ccc(C(=O)Nc2ccc3c(c2)C2(COC(N)=N2)C2(CC2)CO3)nc1 (stereo not drawn) [RP 196] | 0.053 | 0.38 | 0.342
